Assay results from patent publication US20010021697A1, “METHODS AND COMPOSITIONS FOR THE TREATMENT OF MAMMALIAN INFECTIONS EMPLOYING MEDICAMENTS COMPRISING HYMENOPTERA VENOM, PROTEINAGEOUS OR POLYPEPTIDE COMPONENTS THEREOF, OR ANALOGUES OF SUCH PROTEINACEOUS OR POLYPEPTIDE COMPONENTS” (priority 1987, published 2001).
Where “and” joins values, the source holds several entries; their conditions need not be identical. Equal values may be shown once. Read-outs that look alike come from different tables or passages of the source.

Assays:
Type in all cases: cell-based
E. coli G1108E = experiment: Checkerboard titration synergy assay of melittin analogues with polymyxin B; conditions: 5 ug/ml peptide with 6 units/ml polymyxin B; delay time until mid-log phase (FIG. 26)
Staphylococcus aureus = conditions: Venom 4 ug/ml; for optical density, AVERAGE: AVERAGE line; for optical density: single replicates
Pseudomonas aeruginosa = conditions: Venom 40 ug/ml; for optical density, AVERAGE: AVERAGE line; for optical density: single replicates
[1] = Relative activity of analogues with respect to native melittin
Method: Also some of then analogues mentioned above were tested to determine their relative activities with respect to native melittin. The relative activity is calculated as follows: [formula]

S. aureus = experiment: Equivalent doses of melittin fraction and whole honeybee venom with and without kanamycin (growth curves); conditions: doses of what is present: KANA = 2.5, MEL = 1.6, HBV = 2 (ug/ml)
[2] = test system: kanamycin resistant S. aureus; experiment: Checkerboard titration assay for synergy of honeybee venom with antibiotics (OD660 growth curves)
[3] = 0 hours after innoculation, doses of what is present: Rifampicin .001 ug/ml
[4] = 0 hours after innoculation, doses of what is present: Rifampicin .01 ug/ml
[5] = 2 hours after innoculation, doses of what is present: Rifampicin .001 ug/ml
[6] = 2 hours after innoculation, doses of what is present: Rifampicin .01 ug/ml
[7] = 4 hours after innoculation, doses of what is present: Rifampicin .001 ug/ml
[8] = 4 hours after innoculation, doses of what is present: Rifampicin .01 ug/ml
[9] = 6 hours after innoculation, doses of what is present: Rifampicin .001 ug/ml
[10] = 6 hours after innoculation, doses of what is present: Rifampicin .01 ug/ml
[11] = 8 hours after innoculation, doses of what is present: Rifampicin .001 ug/ml
[12] = 8 hours after innoculation, doses of what is present: Rifampicin .01 ug/ml
[13] = 12 hours after innoculation, doses of what is present: Rifampicin .001 ug/ml
[14] = 12 hours after innoculation, doses of what is present: Rifampicin .01 ug/ml
[15] = 0 hours after innoculation, doses of what is present: Rifampicin 10 ug/ml
[16] = 0 hours after innoculation, doses of what is present: Rifampicin 20 ug/ml
[17] = 2 hours after innoculation, doses of what is present: Rifampicin 10 ug/ml
[18] = 2 hours after innoculation, doses of what is present: Rifampicin 20 ug/ml
[19] = 4 hours after innoculation, doses of what is present: Rifampicin 10 ug/ml
[20] = 4 hours after innoculation, doses of what is present: Rifampicin 20 ug/ml
[21] = 6 hours after innoculation, doses of what is present: Rifampicin 10 ug/ml
[22] = 6 hours after innoculation, doses of what is present: Rifampicin 20 ug/ml
[23] = 8 hours after innoculation, doses of what is present: Rifampicin 10 ug/ml
[24] = 8 hours after innoculation, doses of what is present: Rifampicin 20 ug/ml
[25] = 12 hours after innoculation, doses of what is present: Rifampicin 10 ug/ml
[26] = 12 hours after innoculation, doses of what is present: Rifampicin 20 ug/ml

Synthetic Melittin: Synthetic melittin purchased from Peninsula Laboratories, Belmont, Calif.
relative in vitro activity, place in ascending order (E. coli G1108E): 5

CO[C@H]1/C=C/O[C@@]2(C)Oc3c(C)c(O)c4c(O)c(c(/C=N/N5CCN(C)CC5)c(O)c4c3C2=O)NC(=O)/C(C)=C\C=C\[C@H](C)[C@H](O)[C@@H](C)[C@@H](O)[C@@H](C)[C@H](OC(C)=O)[C@@H]1C [Rifampicin]
optical density, AVERAGE (Staphylococcus aureus; [3]): .046
optical density (Staphylococcus aureus; [3]): .046
optical density, AVERAGE (Staphylococcus aureus; [4]): .046
optical density (Staphylococcus aureus; [4]): .046
optical density, AVERAGE (Staphylococcus aureus; [5]): .072
optical density (Staphylococcus aureus; [5]): .081 (2×) and .072
optical density, AVERAGE (Staphylococcus aureus; [6]): .056
optical density (Staphylococcus aureus; [6]): .056 and .054 and .058
optical density, AVERAGE (Staphylococcus aureus; [7]): .807
optical density (Staphylococcus aureus; [7]): .855 and .765 and .800
optical density, AVERAGE (Staphylococcus aureus; [8]): .107
optical density (Staphylococcus aureus; [8]): .140 and .068 and .112
optical density, AVERAGE (Staphylococcus aureus; [9]): 1.17
optical density (Staphylococcus aureus; [9]): 1.18 and 1.16 and 1.17
optical density, AVERAGE (Staphylococcus aureus; [10]): .277
optical density (Staphylococcus aureus; [10]): .372 and .156 and .304
optical density, AVERAGE (Staphylococcus aureus; [11]): 1.26
optical density (Staphylococcus aureus; [11]): 1.27 and 1.26 (2×)
optical density, AVERAGE (Staphylococcus aureus; [12]): .898
optical density (Staphylococcus aureus; [12]): 1.07 and .625 and 1.00
optical density, AVERAGE (Staphylococcus aureus; [13]): 1.34
optical density (Staphylococcus aureus; [13]): 1.34
optical density, AVERAGE (Staphylococcus aureus; [14]): 1.32
optical density (Staphylococcus aureus; [14]): 1.32 and 1.34 and 1.30
optical density, AVERAGE (Pseudomonas aeruginosa; [15]): .033
optical density (Pseudomonas aeruginosa; [15]): .033
optical density, AVERAGE (Pseudomonas aeruginosa; [16]): .033
optical density (Pseudomonas aeruginosa; [16]): .033
optical density, AVERAGE (Pseudomonas aeruginosa; [17]): .080
optical density (Pseudomonas aeruginosa; [17]): .074 and .084 and .082
optical density, AVERAGE (Pseudomonas aeruginosa; [18]): .057
optical density (Pseudomonas aeruginosa; [18]): .053 and .056 and .063
optical density, AVERAGE (Pseudomonas aeruginosa; [19]): .647
optical density (Pseudomonas aeruginosa; [19]): .630 and .672 and .640
optical density, AVERAGE (Pseudomonas aeruginosa; [20]): .351
optical density (Pseudomonas aeruginosa; [20]): .375 and .326 and .380
optical density, AVERAGE (Pseudomonas aeruginosa; [21]): .837
optical density (Pseudomonas aeruginosa; [21]): .830 (2×) and .850
optical density, AVERAGE (Pseudomonas aeruginosa; [22]): .688
optical density (Pseudomonas aeruginosa; [22]): .660 and .645 and .700
optical density, AVERAGE (Pseudomonas aeruginosa; [23]): .882
optical density (Pseudomonas aeruginosa; [23]): .885 and .895 and .865
optical density, AVERAGE (Pseudomonas aeruginosa; [24]): .737
optical density (Pseudomonas aeruginosa; [24]): .730 and .720 and .760
optical density, AVERAGE (Pseudomonas aeruginosa; [25]): .841
optical density (Pseudomonas aeruginosa; [25]): .842 and .850 and .832
optical density, AVERAGE (Pseudomonas aeruginosa; [26]): .735
optical density (Pseudomonas aeruginosa; [26]): .730 (2×) and .745

Melittin (1-20) - Arg-Arg-Arg-Arg-Gln-Gln-NH2 [Analogue #5]
relative in vitro activity, place in ascending order (E. coli G1108E): 8
Relative Activity [1]: 300%

Melittin (1-20) - Orn-Orn-Orn-Orn-Gln-Gln-NH2 [Analogue #2]
relative in vitro activity, place in ascending order (E. coli G1108E): 6
Relative Activity [1]: 200%

NPS-Melittin: o-nitrophenyl sulfenyl group attached to the number 19 tryptophan residue of natural melittin
relative in vitro activity, place in ascending order (E. coli G1108E): 3

Melittin (1-20) - NH2 [Analogue #1]
Relative Activity [1]: 20%

Melittin (1-20) - Lys-Arg-Lys-Arg-Gly-Gly-NH2 [Analogue #4]
relative in vitro activity, place in ascending order (E. coli G1108E): 7

NC[C@H]1O[C@H](O[C@H]2[C@H](O)[C@@H](O[C@H]3O[C@H](CO)[C@@H](O)[C@H](N)[C@H]3O)[C@H](N)C[C@@H]2N)[C@H](O)[C@@H](O)[C@@H]1O [Kanamycin]
MEAN A660 (S. aureus; T0): 0.021
MEAN A660 (S. aureus; T2): 0.080
MEAN A660 (S. aureus; T4): 0.692
MEAN A660 (S. aureus; T6): 1.114
MEAN A660 (S. aureus; T8): 1.217
MEAN A660 (S. aureus; T12): 1.265
MEAN A660 (S. aureus; T24): 1.330
MEAN A660 ([2]; KANA = 5, HBV = 0, T0): 0.016
MEAN A660 ([2]; KANA = 5, HBV = 0, T2): 0.047
MEAN A660 ([2]; KANA = 5, HBV = 0, T4): 0.204
MEAN A660 ([2]; KANA = 5, HBV = 0, T6): 0.282
MEAN A660 ([2]; KANA = 5, HBV = 0, T8): 0.351
MEAN A660 ([2]; KANA = 5, HBV = 0, T12): 0.751
MEAN A660 ([2]; KANA = 5, HBV = 0, T24): 1.152
MEAN A660 ([2]; KANA = 10, HBV = 0, T0): 0.016
MEAN A660 ([2]; KANA = 10, HBV = 0, T2): 0.047
MEAN A660 ([2]; KANA = 10, HBV = 0, T4): 0.135
MEAN A660 ([2]; KANA = 10, HBV = 0, T6): 0.172
MEAN A660 ([2]; KANA = 10, HBV = 0, T8): 0.200
MEAN A660 ([2]; KANA = 10, HBV = 0, T12): 0.397
MEAN A660 ([2]; KANA = 10, HBV = 0, T24): 1.164
MEAN A660 ([2]; KANA = 20, HBV = 0, T0): 0.016
MEAN A660 ([2]; KANA = 20, HBV = 0, T2): 0.047
MEAN A660 ([2]; KANA = 20, HBV = 0, T4): 0.123
MEAN A660 ([2]; KANA = 20, HBV = 0, T6): 0.145
MEAN A660 ([2]; KANA = 20, HBV = 0, T8): 0.166
MEAN A660 ([2]; KANA = 20, HBV = 0, T12): 0.220
MEAN A660 ([2]; KANA = 20, HBV = 0, T24): 0.975
MEAN A660 ([2]; KANA = 40, HBV = 0, T0): 0.016
MEAN A660 ([2]; KANA = 40, HBV = 0, T2): 0.047
MEAN A660 ([2]; KANA = 40, HBV = 0, T4): 0.116
MEAN A660 ([2]; KANA = 40, HBV = 0, T6): 0.146
MEAN A660 ([2]; KANA = 40, HBV = 0, T8): 0.161
MEAN A660 ([2]; KANA = 40, HBV = 0, T12): 0.184
MEAN A660 ([2]; KANA = 40, HBV = 0, T24): 0.697
